Laboratory results taken from publication PMC11334105, “Contribution of Noncovalent Recognition and Reactivity to the Optimization of Covalent Inhibitors: A Case Study on KRas^G12C” (ACS Chemical Biology, 2024).
Read-outs that look alike come from different tables or passages of the source.

Legend:
KRAS^G12C [1] = target: T1, KRAS^G12C (Homo sapiens, UniProt P01116, G12C); experiment: MANT-GDP nucleotide exchange assay (SOS1, GppNHp); type: biochemical
Experimental: The reaction was stopped by adding MgCl2 to a final concentration of 10 mM, then incubated at 20 °C for 30 min. The unbound MANT-GDP was removed using the NAP-5 column equilibrated with nucleotide exchange buffer (40 mM HEPES-NaOH (pH 7.5), 50 mM NaCl, 10 mM MgCl2, 2 mM Dithiothreitol DTT).

H1792 = experiment: Cell proliferation assay (MTT), KRAS^G12C expressing cell; settings: Homo sapiens, NCI-H1792, 72 h, read-out: IC50 anti-proliferative activity
MiaPaca2 = experiment: as above; settings: Homo sapiens, MIA PaCa-2, 72 h, read-out: IC50 anti-proliferative activity
H358 = experiment: as above; settings: Homo sapiens, NCI-H358, 72 h, read-out: IC50 anti-proliferative activity
KRAS^wt = KRAS^wt (Homo sapiens, UniProt P01116); experiment: MANT-GDP nucleotide exchange assay against wild type
Experimental: In the experiments, we used the GTP analogue, GppNHp, which cannot be hydrolyzed by Ras.
After the incubation, the MANT-GDP KRAS-inhibitor mixtures were loaded into a black 384-well microplate in the presence or absence of the different inhibitor molecules in various concentrations. The nucleotide exchange reaction was initiated by adding a 100-fold molar excess of GppNHp (catalog no.: G0635, Sigma-Aldrich), a nonhydrolyzable GTP analog, and the SOS1 exchange domain (catalog no.: GE02, Cytoskeleton, Inc.) protein in 0.2 μM final concentration. The change in fluorescence intensity was measured every 30 s in RT for 60 min on an EnvSpire plate reader (PerkinElmer, Inc.). The measured values were fitted to a single exponential function by using GraphPad Prism 10 software. The derived rates were normalized to the RAS-SOS1 minus RAS-only samples from which the IC50 values were calculated from three independent experiments with each inhibitor using GraphPad Prism 10 software.

[2] = HPLC-based GSH reactivity and stability assay; type: physicochemical; settings: for half-life at 250 μM: 5 mM glutathione, PBS pH 7.4, corrected for aqueous degradation, mean ± SD, n = 2, read-out: t1/2 GSH (converted); for experimental ΔG^#(GSH): free energy barrier calculated from t1/2 and GSH^– concentration
Experimental: The cysteine reactivity of the compounds was first assessed in a surrogate kinetic assay.[25],[26] Glutathione (GSH), a cysteine surrogate, was used in a large excess to ensure quasi-first-order reaction kinetics.
The sample was eluted with gradient elution using eluent A (0.1% FA in H2O) and eluent B (0.1% FA in ACN). The column temperature was always kept at 30 °C; the injection volume was 20 μL, the flow rate was set to 1.5 mL/min, and a Reprospher C18 (5 μm, 100 mm × 3 mm) column was used along with the following gradient. […] The AUC (area under the curve) values were determined via the integration of HPLC chromatograms and then corrected with the internal standard. The fragments’ AUC values were subjected to ordinary least-squares (OLS) linear regression, and to compute the important parameters (kinetic rate constant and half-life time), an Excel sheet was applied. The data are expressed as means of duplicate determinations. The kinetic rate constant for the degradation and corrected GSH reactivity were calculated as follows. The reaction half-life for pseudo-first-order reactions (t1/2) is ln 2/k, where k is the reaction rate. In the case of competing reactions (reaction with GSH and degradation), the apparent reaction rate is kapp = kdeg + kGSH. When half-lives are measured experimentally, t1/2(app) = ln 2/(kapp) = ln 2/(kdeg + kGSH). In our case, the corrected kdeg and kapp (regarding blank and GSH-containing samples, respectively) can be calculated by the linear regression of the measured kinetic data points. The corrected kGSH is calculated as kapp – kdeg, and finally, the half-life is determined using the equation t1/2 = ln 2/k.

KRAS^G12C [3] = target: T1, KRAS^G12C; experiment: LC-MS occupancy measurements (KI and kinact determination); type: binding; settings: for kobs: 5 μM KRASG12C, duplicated experiments; for experimental ΔG^# (KRAS^G12C): free energy barrier calculated from kinact; for experimental ΔGbind: obtained as RT ln(KI) with KI in M units
KRAS^G12C [4] = settings: published value ref 46; cited from earlier work
[5] = KRAS^G12C, 60 min incubation with inhibitor, mean ± SD, n = 3, read-out: IC50 inhibition of nucleotide exchange
[6] = PBS buffer with 5 mM glutathione (GSH)
[7] = fit of kobs vs concentration, MS occupancy, mean ± SD, n = 2
[8] = fit of kobs vs concentration, MS occupancy, mean ± SD, n = 2, read-out: KI

| SMILES | IC50 (KRAS^G12C [1]; [5]) [µM] | IC50 (H1792) [µM] | IC50 (MiaPaca2) [µM] | IC50 (H358) [µM] | IC50 (KRAS^wt) [µM] | half-life at 250 μM [2, 6] [h] | experimental ΔG^#(GSH) [2] [kcal/mol] | kinact/KI (KRAS^G12C [3]) [M⁻¹ s⁻¹] | kobs (KRAS^G12C [3]; 20 μM inhibitor) [s⁻¹] | kobs (KRAS^G12C [3]; 40 μM inhibitor) [s⁻¹] | kobs (KRAS^G12C [3]; 80 μM inhibitor) [s⁻¹] | kobs (KRAS^G12C [3]; 160 μM inhibitor) [s⁻¹] | kinact (KRAS^G12C [3]; [7]) | Ki (KRAS^G12C [3]; [8]) [µM] | experimental ΔG^# (KRAS^G12C) (KRAS^G12C [3]) [kcal/mol] | experimental ΔGbind (KRAS^G12C [3]) | half-life at 250 μM ([2]; buffer) [h] | IC50 (KRAS^G12C [1]) [µM] | Ki (KRAS^G12C [3]) [µM] | kinact/KI (KRAS^G12C [4]) |
| --- | --- | --- | --- | --- | --- | --- | --- | --- | --- | --- | --- | --- | --- | --- | --- | --- | --- | --- | --- | --- |
| C=CC(=O)N1CCN(c2ncnc3cc(-c4c(O)cccc4F)c(Cl)cc23)CC1 [1a, 1-(4-(6-Chloro-7-(2-fluoro-6-hydroxyphenyl)quinazolin-4-yl)piperazin-1-yl)prop-2-en-1-one] | 0.827 ± 0.137 | 16.2 | 1.8 | 2.3 | – | – | – | – | – | – | – | – | – | – | – | – | – | – | – | – |
| C=CC(=O)N1CCN(c2nc(OCC3CCCN3C)nc3cc(-c4c(O)cccc4F)c(Cl)cc23)CC1 (centres unmarked) [1b, 1-(4-(6-Chloro-7-(2-fluoro-6-hydroxyphenyl)-2-((1-methylpyrrolidin-2-yl)methoxy)quinazolin-4-yl)piperazin-1-yl)prop-2-en-1-one] | 0.52 ± 0.108 | 30.1 | 0.53 | 1.1 | 177 | – | – | – | – | – | – | – | – | – | – | – | – | – | – | – |
| O=C(CCl)N1CCN(c2ncnc3cc(-c4c(O)cccc4F)c(Cl)cc23)CC1 [2a, 2-Chloro-1-{4-[6-chloro-7-(2-fluoro-6-hydroxyphenyl)-quinazolin-4-il]piperazine-1-yl}ethane-1-one] | 0.305 ± 0.04 | 2.9 | 3.1 | 2.7 | – | – | – | – | – | – | – | – | – | – | – | – | – | – | – | – |
| CN1CCCC1COc1nc(N2CCN(C(=O)CCl)CC2)c2cc(Cl)c(-c3c(O)cccc3F)cc2n1 (centres unmarked) [2b, 2-Chloro-1-(4-(6-chloro-7-(2-fluoro-6-hydroxyphenyl)-2-((1-methylpyrrolidin-2-yl)methoxy)quinazolin-4-yl)piperazin-1-yl)ethan-1-one] | 0.642 ± 0.115 | 1.8 | 3.2 | 1.8 | – | – | – | – | – | – | – | – | – | – | – | – | – | – | – | – |
| O=C(N1CCN(c2ncnc3cc(-c4c(O)cccc4F)c(Cl)cc23)CC1)n1ccnc1 [3a, (4-(6-Chloro-7-(2-fluoro-6-hydroxyphenyl)quinazolin-4-yl)piperazin-1-yl)(1H-imidazol-1-yl)methanone] | 67.4 ± 11.3 | 17.9 | 20.4 | 27.4 | – | 35 ± 11 | 19.6 ± 0.2 | 9.8 ± 4.7 | 0.00014 ± 0.00003 | 0.00021 ± 0.00005 | 0.00033 ± 0.00004 | 0.00033 ± 0.00006 | 0.4 ± 0.1 0.001 s^–1 | 40.9 ± 16.7 | 22.0 ± 0.2 | –6.0 ± 0.4 kcal/mol | – | – | – | – |
| CN1CCCC1COc1nc(N2CCN(C(=O)n3ccnc3)CC2)c2cc(Cl)c(-c3c(O)cccc3F)cc2n1 (centres unmarked) [3b, (4-(6-Chloro-7-(2-fluoro-6-hydroxyphenyl)-2-((1-methylpyrrolidin-2-yl)methoxy)quinazolin-4-yl)piperazin-1-yl)(1H-imidazol-1-yl)methanone] | 243 ± 52.4 | 17.7 | 8.8 | 9.9 | – | 40 ± 18 | 19.7 ± 0.3 | 3.1 ± 0.7 | 0.00005 ± 0.00001 | 0.0006 ± 0.00001 | 0.00009 ± 0.00001 | 0.00010 ± 0.00001 | 0.13 ± 0.01 0.001 s^–1 | 42.2 ± 9.9 | 22.7 ± 0.0 | –6.0 ± 0.1 kcal/mol | – | – | – | – |
| O=C(C1CN1)N1CCN(c2ncnc3cc(-c4c(O)cccc4F)c(Cl)cc23)CC1 (centres unmarked) [4a, Aziridin-2-yl(4-(6-chloro-7-(2-fluoro-6-hydroxyphenyl)quinazolin-4-yl)piperazin-1-yl)methanone] | – | 22.6 | 19.8 | 27.1 | – | – | >20.1 | – | 0.00004 ± 0.00001 | 0.0006 ± 0.00001 | 0.00007 ± 0.00001 | 0.00008 ± 0.00001 | – | – | 22.9 ± 0.0 | –6.3 ± 0.1 kcal/mol | > 72 | 198 ± 39 | 22.2 ± 1.8 | – |
| CN1CCCC1COc1nc(N2CCN(C(=O)C3CN3)CC2)c2cc(Cl)c(-c3c(O)cccc3F)cc2n1 (centres unmarked) [4b, Aziridin-2-yl(4-(6-chloro-7-(2-fluoro-6-hydroxyphenyl)-2-((1-methylpyrrolidin-2-yl)methoxy)quinazolin-4-yl)piperazin-1-yl)methanone] | – | 30.8 | 48.2 | 90 | – | – | >20.1 | – | 0.00029 ± 0.00018 | 0.00044 ± 0.00004 | 0.00072 ± 0.00018 | 0.00104 ± 0.00002 | – | – | 21.2 ± 0.1 | –5.4 ± 0.2 kcal/mol | > 72 | 84.4 ± 18.9 | 112 ± 30.1 | – |
| C=CC(=O)N1CCN(c2ncnc3c(F)c(-c4c(O)cccc4F)c(Cl)cc23)CC1 [ARS-1620, reference compound] | – | 10.2 | 0.14 | 0.31 | – | – | – | – | – | – | – | – | – | – | – | – | – | – | – | – |
| C=CC(=O)N1CCN(c2nc(OC[C@@H]3CCCN3C)nc3c(F)c(-c4nc(N)cc(C)c4C(F)(F)F)c(Cl)cc23)[C@@H](C)C1 [Divarasib] | – | – | – | – | – | – | – | – | – | – | – | – | – | – | – | – | – | – | – | 710,000 M^–1 s^–1 |
